Where two headings read alike, the source gives them in different places.
Tested on: AP-1 induced transcriptional activity
Assay: Cellular Transrepressional Assay (AP-1 luciferase reporter in A549 cell, PMA activated)
Format: cell-based
Conditions: pAP-1-Luc; for Emax: read-out: AP-1 Max % inh (Cellular Transrepression Assay); for EC50: 10 ng/ml PMA, 7 hours, read-out: AP-1 EC50, nM (Cellular Transrepression Assay)
Procedure: Cellular Transrepressional Assay
To measure the ability of test molecules to inhibit AP-1 induced transcriptional activity we utilized an A549 cell which was stably transfected with a plasmid containing 7×AP-1 DNA binding sites (pAP-1-Luc plasmid, Stratagene Co. La Jolla, Calif.) followed by the gene for luciferase. Cells were activated with 10 ng/ml of phorbol myristic acid (PMA) plus or minus test molecules for 7 hours. After 7 hours a luciferase reagent was added to measure luciferase enzymatic activity in the cell. After a 10 minute incubation of luciferase reagent with cells, luminescence was measured in a TopCount luminescence counter. Repression of AP-1 activity was calculated as the percentage decrease in the signal induced by PMA alone. Test molecules were analyzed in the concentration range from 0.1 nM to 40 μM. EC50s were determined by using standard curve fitting methods such as Excel fit (Microsoft Co.). An EC50 is the test molecule concentration at which there is a 50% repression of the maximal inhibition of transcription, i.e. a 50% reduction of AP-1 activity.

[1] = Homo sapiens, A549, 7 h, maximum inhibition, PMA

Row | EC50 (Homo sapiens, A549, 7 h) | EC50 | Structure (SMILES) | Emax [1] | AP-1 Max % inh (Cellular Transrepression Assay) (maximum inhibition, PMA)
1 | 700 nM | – | CC(C)(C(=O)Nc1nccs1)C(c1cccc(F)c1)c1ccc(N2CCOCC2)s1 (stereo not shown) [Example 10, 3-(3-fluorophenyl)-2,2-dimethyl-3-(5-(4-morpholinyl)-2-thienyl)-N-1,3-thiazol-2-ylpropanamide] | 40% | –
2 | 18.7 nM | – | CC(C)(C(=O)Nc1nc(Cc2ccc(-c3ccncc3)cc2)cs1)C(c1ccccc1)c1ccncc1 (stereo not shown) [Example 5, 2,2-dimethyl-3-phenyl-3-(4-pyridinyl)-N-(4-(4-(4-pyridinyl)benzyl)-1,3-thiazol-2-yl)propanamide] | 89.9% | –
3 | 45.5 nM | – | CC(C)Cc1ccc(-c2ccc([C@@H](c3cccc(F)c3)[C@@H](C)C(=O)Nc3nncs3)s2)cc1 [Example 114, (2R,3R)-3-(3-fluorophenyl)-3-(5-(4-isobutylphenyl)-2-thienyl)-2-methyl-N-1,3,4-thiadiazol-2-ylpropanamide] | 36.6% | –
4 | 73.9 nM | – | CN(C)C(=O)c1ccc(-c2ccc(C(c3ccccc3)C(C)(C)C(=O)Nc3nncs3)cn2)cc1 (stereo not shown) [Example 32, 4-(5-(2,2-dimethyl-3-oxo-1-phenyl-3-(1,3,4-thiadiazol-2-ylamino)propyl)-2-pyridinyl)-N,N-dimethylbenzamide] | 43.1% | –
5 | – | 576 nM | CC(C(=O)Nc1nncs1)C(c1cccc(F)c1)c1ccc(-c2ccc(C(=O)N3CCOCC3)cc2)s1 (single isomer, unassigned) [Example 101, 3-(3-fluorophenyl)-2-methyl-3-(5-(4-(4-morpholinylcarbonyl)phenyl)-2-thienyl)-N-1,3,4-thiadiazol-2-ylpropanamide] | – | 51.00 % inh
6 | 8.49 nM | – | CN(C)C(=O)c1ccc(-c2ccc(C(c3ccccc3)C(C)(C)C(=O)Nc3nncs3)s2)cc1 (stereo not shown) [Example 87, 4-(5-(2,2-dimethyl-3-oxo-1-phenyl-3-(1,3,4-thiadiazol-2-ylamino)propyl)-2-thienyl)-N,N-dimethylbenzamide] | 41.1% | –
7 | 142 nM | – | CC(C)(C(=O)Nc1nncs1)C(c1ccccc1)c1ccc(N2CCOCC2)nc1 (single isomer, unassigned) [Example 23, 2,2-Dimethyl-3-(6-(4-morpholinyl)-3-pyridinyl)-3-phenyl-N-1,3,4-thiadiazol-2-ylpropanamide] | 29.4% | –
8 | – | 24.6 nM | CC(C(=O)Nc1nncs1)C(c1ccccc1)c1ccc(-c2ccc(C(=O)N(C)C)c(Cl)c2)s1 (single isomer, unassigned) [Example 148, 2-chloro-N,N-dimethyl-4-(5-(2-methyl-3-oxo-1-phenyl-3-(1,3,4-thiadiazol-2-ylamino)propyl)-2-thienyl)benzamide] | 51.5% | –
9 | 22.9 nM | – | CCN(C)C(=O)c1ccc(-c2ccc([C@@H](c3cccc(F)c3)[C@@H](C)C(=O)Nc3nncs3)s2)cc1F [Example 120, N-ethyl-2-fluoro-4-(5-((1R,2R)-1-(3-fluorophenyl)-2-methyl-3-oxo-3-(1,3,4-thiadiazol-2-ylamino)propyl)-2-thienyl)-N-methylbenzamide] | 42.9% | –
10 | – | 15.8 nM | CCN(C)C(=O)c1ccc(-c2ccc(C(c3cccc(F)c3)C(C)C(=O)Nc3nncs3)s2)cc1 (single isomer, unassigned) [Example 98, N-ethyl-4-(5-(1-(3-fluorophenyl)-2-methyl-3-oxo-3-(1,3,4-thiadiazol-2-ylamino)propyl)-2-thienyl)-N-methylbenzamide] | 55.3% | –
11 | 17.9 nM | – | CC(C)Oc1ccc(-c2ccc([C@@H](c3cccc(F)c3)[C@@H](C)C(=O)Nc3nncs3)s2)cc1 [Example 113, (2R,3R)-3-(3-fluorophenyl)-3-(5-(4-isopropoxyphenyl)-2-thienyl)-2-methyl-N-1,3,4-thiadiazol-2-ylpropanamide] | 37.8% | –

From US8222247B2, “Modulators of glucocorticoid receptor, AP-1, and/or NF-kappabeta activity and use thereof” (Bristol-Myers Squibb Company, priority 2006, dated 2012)
